Series [1] concerns Neocopyovirus. Format: in vivo. The settings on record: 1 mM; n=3.
The test system of series [2] is influenza pseudovirus H7N9-Fluc. Nature of the series: microbe, parasite or virus in culture. Format: cell-based. The settings on record: n=3.
For series [3], the system named is IL-1β. Put plainly: LPS inflammatory aging in C57BL/6 mice, serum IL-1β (Example II-55, Table II-35). Format: in vivo, mouse. The note with it: 1 mM, 200 μl/time, once a day, 30 days.
For series [4], the system named is IL-1β. Nature of the series: Skin photoaging (UVB) in BALB/c nude mice, serum IL-1β (Example II-54, Table II-33). The format is in vivo, mouse. The note with it: serum, UVB-irradiated BALB/c nude mice, 40 days.
Series [5] relates to TNF-α. Put plainly: Skin photoaging (UVB) in BALB/c nude mice, serum TNF-α (Example II-54, Table II-32). Format: in vivo, mouse. The settings on record: UVB-irradiated BALB/c nude mice, 40 days.
Series [6] relates to IL-6. Nature of the series: Skin photoaging (UVB) in BALB/c nude mice, serum IL-6 (Example II-54, Table II-34). Format: in vivo, mouse. The settings on record: serum, UVB-irradiated BALB/c nude mice, 40 days.
Series [7] has as its system TNF-α. Nature of the series: LPS inflammatory aging in C57BL/6 mice, serum TNF-α (Example II-55, Table II-37). Format: in vivo, mouse. The note with it: 1 mM, 200 μl/time once a day for 30 days, LPS C57BL/6 mice.
Series [8] deals with IL-6. Nature of the series: LPS inflammatory aging in C57BL/6 mice, serum IL-6 (Example II-55, Table II-36). The format is in vivo, mouse. The note with it: 1 mM, 200 μl/time once a day for 30 days; serum, LPS C57BL/6 mice.
Series [9] has as its system HIV pseudovirus (18A-41). The format is cell-based. The settings on record: 293T cells pretreated 4 h, n=3.
For series [10] the following is noted: mouse, in vivo, po.
Series [11] deals with Staphylococcus aureus. Put plainly: Bacteriostasis/sterilization test (plate count). Format: cell-based. The settings on record: for Inhibition rate (%): 0.035 mM (Table 25).
Series [12] relates to VERO E6 cells. Nature of the series: Cytotoxicity (CCK-8) on VERO E6 cells. The settings on record: […] to 0.035 mM.
Series [13] has as its system Klebsiella pneumoniae. Nature of the series: Bacteriostasis/sterilization test (plate count). The note with it: for Inhibition rate (%): 0.035 mM (Table 25). Format: cell-based.
In series [14] the test system is SARS-CoV-2 pseudovirus (B.1.526.2). Format: cell-based. The settings on record: n=3.
Series [15] relates to HIV pseudovirus. The format is cell-based, HIV pseudovirus HIV18A-41.
Series [16] has as its system Streptococcus pneumoniae. Put plainly: Bacteriostasis/sterilization test (plate count). The note with it: for Inhibition rate (%): 0.035 mM (Table 25). The format is cell-based.
Series [17] has as its system H7N9 pseudovirus. Format: cell-based, Influenza pseudovirus H7N9-Fluc.
For series [18], the system named is Escherichia coli. Put plainly: Bacteriostasis/sterilization test (plate count). The format is cell-based. The note with it: for Inhibition rate (%): 0.035 mM (Table 25).
In series [19] the test system is H5N1 pseudovirus. The format is cell-based, Influenza pseudovirus H5N1-Fluc.
Series [20] deals with Pseudomonas aeruginosa. Nature of the series: Bacteriostasis/sterilization test (plate count). The settings on record: for Inhibition rate (%): 0.035 mM (Table 25). Format: cell-based.
In series [21] the test system is 293T cells. Nature of the series: Cellular phagocytosis of DiD-loaded lipid vesicles (nano-drugs) by 293T cells (Example II-51, Table II-29). The format is cell-based. The settings on record: 293T cells pretreated 4 h, DiD lipid vesicles 2 h, n=3, untreated control 226.46 ± 1.26.
Series [22] concerns SARS-CoV-2 pseudovirus. Format: cell-based, SARS-CoV-2 pseudovirus B.1.526.2.
Series [23] has as its system Methicillin-resistant Staphylococcus aureus. Put plainly: Bacteriostasis/sterilization test (plate count). Format: cell-based. The note with it: for Inhibition rate (%): 0.035 mM (Table 25).
Setting [24] is: read-out: half inhibition concentration.

Experimental findings from patent US20260166162A1, “CARBON CHAIN SUBSTANCE FOR REGULATING TRANSMEMBRANE TRANSPORT AND FLUIDITY OF CELL MEMBRANES, AND PREPARATION AND USE THEREOF” (priority 2022, published 2026) are described below.

Like-named read-outs stand apart in the source and are kept apart here. Where only a bound is given, the exact number is not on record here.

Glucosamine-erucic acid had a Fluorescence intensity in [1] of 6.8 ± 0.49. Moreover, the “Inhibition rate (%)” value in series [2] (2 nM) came out at 50.54 ± 3.54%; in series [2] (5 nM) it was 39.66 ± 3.66%; in [2] (10 nM) it was 48.04 ± 7.56%; in series [2] (50 nM) it was 47.33 ± 4.56%; in series [2] (100 nM) it was 53.86 ± 3.98%; in [2] (1 μM) it was 12.07 ± 2.65%. In addition, the “Inhibition rate (%)” value in series [2] (10 μM) worked out at 54.05 ± 5.05%; in [2] (50 μM), 91.44 ± 4.48%; in [2] (100 μM), 99.78 ± 5.64%.
For the compound `CCCCCC=CCC=CCCCCCCCC(=O)OCC(N)C(=O)O` (centres unmarked) [Ser-linoleic acid], the “IL-1β” value worked out at 43 pg/mL in series [3], 53 pg/mL in [4] (30 μM smeared), 54 pg/mL in [4] (50 μM smeared) and 55 pg/mL in [4] (100 μM smeared). Further, the TNF-α in series [5] (30 μM smeared) was 48 pg/mL; in [5] (50 μM smeared), 51 pg/mL; in [5] (100 μM smeared), 45 pg/mL; in [7], 49 pg/mL. The IL-6 in [6] (30 μM smeared) was found to be 28 pg/mL; in series [6] (50 μM smeared) it was 27 pg/mL; in series [6] (100 μM smeared) it was 29 pg/mL; in series [8], 39 pg/mL.
The compound Threonine-tetracosanoic acid returned a Fluorescence intensity in series [1] of 2.9 ± 0.11. For the same compound, the “Inhibition rate (%)” value is 81.01 ± 5.26% in series [9] (2 nM); 92.25 ± 5.03% in series [9] (5 nM); 94.06 ± 6.46% in series [9] (10 nM); 99.01 ± 6.33% in [9] (50 nM); 98.64 ± 5.77% in series [9] (100 nM); -42.03 ± 3.83% in [9] (1 μM). Moreover, the “Inhibition rate (%)” value in series [9] (10 μM) was -64.26 ± 6.54%; in [9] (50 μM), 81.96 ± 6.75%; in series [9] (100 μM, negative value = promotes infection), 83.84 ± 3.84%.
On to `CCCCCCC(O)CC=CCCCCCCCC(=O)NCCCCC(N)C(=O)O` (centres unmarked) [Lys-ricinoleic acid], for which the “IL-1β” value is 51 pg/mL in series [3], 70 pg/mL in series [4] (30 μM smeared), 65 pg/mL in series [4] (50 μM smeared) and 63 pg/mL in series [4] (100 μM smeared). The TNF-α in series [5] (30 μM smeared) was 60 pg/mL; in series [5] (50 μM smeared), 55 pg/mL; in series [5] (100 μM smeared), 57 pg/mL; in series [7] it was 43 pg/mL. Also, the IL-6 in [6] (30 μM smeared) is 34 pg/mL; in series [6] (50 μM smeared), 38 pg/mL; in [6] (100 μM smeared), 33 pg/mL; in [8] it was 60 pg/mL.
On to `CCCCCCCC/C=C\CCCCCCCC(=O)NCCCCC(N)C(=O)O` (centres unmarked), for which, in [10], the “liver, heart, kidney, bone/hepatobiliary function in blood versus control group” value was “no difference” and the “physiological state, body weight, fur color, food consumption, mental state versus control group” value is reported as “not significantly different”. Also, the inhibition rate entry in [11] (concentration 0.035 mM) is “greater than 99%”. Besides, the IC50 in [11] (setting [24]) came out at 9 µM. In series [12], the “effect of the complex on cells” value is “less than 1%”.
For the compound `CCCCCCCC(=O)OCC(N)C(=O)O` (centres unmarked), the “Inhibition rate (%)” value in series [13] is 99%; in series [14] (2 nM), 30.54 ± 0.54%; in series [14] (5 nM), 52.06 ± 5.23%; in series [14] (10 nM), 53.84 ± 1.57%; in series [14] (50 nM) it was 56.33 ± 1.56%; in series [14] (100 nM), 63.22 ± 2.55%. Moreover, the “Inhibition rate (%)” value in series [14] (1 μM) is -97.39 ± 7.23%; in [14] (10 μM) it was -44.26 ± 0.03%; in series [14] (50 μM) it was 71.36 ± 0.28%; in [14] (100 μM) it was 73.55 ± 0.44%; in [16], 99%; in series [18], 99%. In addition, the “Inhibition rate (%)” value in [11], in [20] and in [23] was 99% in each case. Moreover, the “Sterilization rate (%)” value in series [15], in series [17], in [19] and in series [22] was 99% throughout. For the same compound, the inhibition rate entry in series [11] (concentration 0.035 mM) is reported as “greater than 99%”. The IC50 in [11] (setting [24]) is 9 µM. The Fluorescence intensity amounted to 157.30 ± 0.13 in series [21] (2 nM); 108.56 ± 0.13 in series [21] (5 nM); 104.53 ± 0.13 in series [21] (10 nM); 98.90 ± 0.13 in series [21] (50 nM); 83.29 ± 5.66 in series [21] (100 nM); 447.01 ± 12.33 in [21] (1 uM). Moreover, the Fluorescence intensity came to 326.69 ± 4.66 in series [21] (10 uM), 64.86 ± 5.13 in series [21] (50 uM) and 59.90 ± 4.13 in [21] (100 uM).
Regarding `CCC=CCC=CCC=CCCCCCCCC(=O)OC(C)C(N)C(=O)O` (centres unmarked) [Thr-linolenic acid], the “IL-1β” value in series [3] stood at 41 pg/mL. This compound also came in with a TNF-α in series [7] of 52 pg/mL. The compound further had an IL-6 in series [8] of 57 pg/mL.
Regarding `CCCCCCCC/C=C\CCCCCCCC(=O)OC(C)C(N)C(=O)O` (centres unmarked), the “Inhibition rate (%)” value in series [13], in series [16], in [18], in [11], in series [20] and in series [23] was 99% throughout. In addition, the “Sterilization rate (%)” value in series [15], in series [17], in series [19] and in series [22] was 99% in each case. Further, in series [11] (concentration 0.035 mM), the inhibition rate entry is given as “greater than 99%”. Moreover, in [11] (setting [24]), the IC50 was found to be 9 µM.
With `CCCCCCCC(=O)OCC1OC(O)C(O)C(O)C1O` (centres unmarked), the “Sterilization rate (%)” value in series [13] (9 mM, 2 h) is given as greater than 99%; in series [16] (9 mM, 2 h), greater than 99%; in [18] (9 mM, 2 h) it was greater than 99%; in series [20] (9 mM, 2 h) it was greater than 99%; in [23] (9 mM, 2 h, listed as printed as Methicillin-resistant Streptococcus pneumoniae) it was greater than 99%. Moreover, in series [11] (2 h, read-out: half maximal inhibition concentration), the IC50 is 4500 µM. In addition, in series [11] (concentration 72 mM-9 mM, 2 h), the inhibition rate result is “greater than 99%”.
